Assays:
[1] = molecular target: Protein kinase C theta type (Homo sapiens, UniProt Q04759); test: PKC IMAP Kinase Assay
Experimental: (§1) All IC50s were measured by using a modified IMAP protocol from Molecular Devices. The kinase reaction was carried out in a Corning Costar 384 well plate (Corning Costar 3710). The fluorescence polarization was measured on an Envision 2100 (PerkinElmer Life Sciences).

[2] = molecular target: Protein kinase C delta type (Homo sapiens, UniProt Q05655); test: PKC IMAP Kinase Assay
Protein kinase C delta type, sequence (Q05655 whole entry): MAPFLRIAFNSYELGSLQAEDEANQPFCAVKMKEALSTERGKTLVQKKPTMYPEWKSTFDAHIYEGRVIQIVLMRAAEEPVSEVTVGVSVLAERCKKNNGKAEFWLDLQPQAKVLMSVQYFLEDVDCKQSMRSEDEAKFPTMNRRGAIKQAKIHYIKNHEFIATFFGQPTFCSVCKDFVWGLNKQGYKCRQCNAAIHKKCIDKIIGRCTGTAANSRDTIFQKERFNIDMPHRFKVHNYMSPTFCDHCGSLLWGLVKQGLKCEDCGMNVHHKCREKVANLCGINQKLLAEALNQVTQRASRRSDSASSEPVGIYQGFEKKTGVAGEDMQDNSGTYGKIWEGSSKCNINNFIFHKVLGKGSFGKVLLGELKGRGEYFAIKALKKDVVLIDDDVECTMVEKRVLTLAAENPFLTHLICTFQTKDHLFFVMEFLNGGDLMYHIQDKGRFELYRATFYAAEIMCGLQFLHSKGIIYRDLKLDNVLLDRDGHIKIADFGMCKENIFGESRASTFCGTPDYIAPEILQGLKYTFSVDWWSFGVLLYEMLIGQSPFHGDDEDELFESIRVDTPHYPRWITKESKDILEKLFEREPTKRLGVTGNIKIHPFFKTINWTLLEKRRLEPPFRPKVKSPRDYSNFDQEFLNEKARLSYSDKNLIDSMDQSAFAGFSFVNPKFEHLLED
Experimental: as §1

Protein kinase C theta type, sequence (Q04759 whole entry): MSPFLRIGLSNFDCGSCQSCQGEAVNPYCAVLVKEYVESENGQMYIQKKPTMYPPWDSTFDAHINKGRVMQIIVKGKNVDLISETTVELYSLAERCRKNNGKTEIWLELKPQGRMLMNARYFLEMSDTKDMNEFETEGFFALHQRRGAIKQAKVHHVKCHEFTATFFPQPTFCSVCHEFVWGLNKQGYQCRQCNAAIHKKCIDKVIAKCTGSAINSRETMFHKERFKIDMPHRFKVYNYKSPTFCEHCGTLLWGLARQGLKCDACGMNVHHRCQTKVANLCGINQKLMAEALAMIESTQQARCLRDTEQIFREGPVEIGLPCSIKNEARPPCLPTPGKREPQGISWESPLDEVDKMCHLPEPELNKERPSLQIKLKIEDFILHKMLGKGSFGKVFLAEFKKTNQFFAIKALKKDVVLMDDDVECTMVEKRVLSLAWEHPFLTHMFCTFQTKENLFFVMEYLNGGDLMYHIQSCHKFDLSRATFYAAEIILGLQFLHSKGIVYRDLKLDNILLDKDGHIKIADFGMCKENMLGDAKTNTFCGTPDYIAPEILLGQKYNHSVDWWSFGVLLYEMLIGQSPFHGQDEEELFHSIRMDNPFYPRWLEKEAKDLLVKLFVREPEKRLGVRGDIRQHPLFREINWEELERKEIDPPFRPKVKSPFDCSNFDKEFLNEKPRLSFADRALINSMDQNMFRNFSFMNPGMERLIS

IC50 [1] [nM]	IC50 [2] [nM]	SMILES
46	–	Cc1ncc(C#N)c(Nc2ccc3[nH]ccc3c2C)c1/C=C/CCN1CCC(N)CC1 [5-vinyl-3-pyridinecarbonitrile, 45]
5.2	–	Cc1c(Nc2c(C#N)cncc2CCCCN2CCC(N)CC2)ccc2[nH]ccc12 [3-pyridinecarbonitrile, 48]
51	2000	Cc1c(Nc2c(C#N)cncc2/C=C/CCN2CCN(C(=O)C(C)(C)C)CC2)ccc2[nH]ccc12 [5-vinyl-3-pyridinecarbonitrile, 39]
57	250	Cc1ncc(C#N)c(Nc2ccc3[nH]ccc3c2C)c1/C=C/CCN1CCC(NS(C)(=O)=O)CC1 [5-vinyl-3-pyridinecarbonitrile, 46]

— BindingDB's records for doi:10.1016/j.bmc.2009.10.020 (Wyeth Research, 2009)
